Data from ChEMBL document CHEMBL1123072, “1,3-Dialkyl-8-(p-sulfophenyl)xanthines: potent water-soluble antagonists for A1- and A2-adenosine receptors” (J Med Chem, 1985).
Values after ≈ are worked out from the molar mass of the structure shown.

Key:
[1] = biological target: T1, Adenosine receptor A2a (Cavia porcellus, UniProt P46616)
Description: Antagonism of cyclic [3H]AMP accumulation in guinea pig cerebral cortical slices (elicited by 15 uM 2-chloroadenosine at adenosine A2 receptor)

[2] = biological target: T2, Adenosine receptor A1 (Rattus norvegicus, UniProt P25099); assay: Antagonism of binding of 1 nM [3H]cyclohexyladenosine to adenosine A1 receptors on rat cortical membranes; type: cell membranes, Membrane
T2 sequence (P25099 whole entry): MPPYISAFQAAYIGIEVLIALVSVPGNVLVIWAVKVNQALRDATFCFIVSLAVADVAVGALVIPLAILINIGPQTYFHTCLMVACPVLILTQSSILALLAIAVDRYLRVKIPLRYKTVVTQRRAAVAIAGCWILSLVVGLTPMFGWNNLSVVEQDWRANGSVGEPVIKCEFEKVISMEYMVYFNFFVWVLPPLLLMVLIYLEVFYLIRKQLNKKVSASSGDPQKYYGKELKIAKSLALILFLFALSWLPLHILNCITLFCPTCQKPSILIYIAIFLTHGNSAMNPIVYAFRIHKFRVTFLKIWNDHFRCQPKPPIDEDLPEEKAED

[3] = Solubility in water; type: physicochemical; details: read-out: S
[4] = biological target: T1, Adenosine receptor A2a; assay: Antagonism of cyclic [3H]AMP accumulation elicited by 15 uM 2-chloroadenosine in [3H]adenine-labeled guinea pig cerebral cortical slices at A2 receptor; type: functional

T1 sequence (P46616 whole entry): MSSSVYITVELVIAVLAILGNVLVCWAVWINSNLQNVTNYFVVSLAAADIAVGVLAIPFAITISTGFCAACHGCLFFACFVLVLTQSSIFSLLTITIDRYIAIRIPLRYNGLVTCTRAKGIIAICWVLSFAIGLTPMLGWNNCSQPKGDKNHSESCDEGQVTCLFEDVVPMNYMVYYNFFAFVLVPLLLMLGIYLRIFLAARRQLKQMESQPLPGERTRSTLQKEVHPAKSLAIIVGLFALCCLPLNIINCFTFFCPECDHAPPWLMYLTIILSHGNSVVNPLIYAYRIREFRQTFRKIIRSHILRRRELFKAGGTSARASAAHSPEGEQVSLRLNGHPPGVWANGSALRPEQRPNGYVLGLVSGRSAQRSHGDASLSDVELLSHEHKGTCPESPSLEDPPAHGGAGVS

Structure (SMILES) | Ki [1] [nM] | Ki [2] [nM] | solubility [3] [µM] | EC50 [4] [nM]
Cn1c(=O)c2[nH]c(-c3cccc(N)c3)nc2n(C)c1=O | 900 | 1100 |  | 
Cn1c(=O)c2[nH]c(-c3ccc(C(=O)O)cc3)nc2n(C)c1=O | 2500 |  | 90 (≈ 27 µg/mL) | 
Cn1c(=O)c2[nH]c(-c3cccc(O)c3)nc2n(C)c1=O | 1000 | 340 |  | 
Cn1c(=O)c2nc(-c3ccccc3N)[nH]c2n(C)c1=O | 1700 | 850 |  | 
Cn1c(=O)c2nc(-c3ccccc3C(=O)O)[nH]c2n(C)c1=O | > 30000 | > 50000 |  | 
CCCn1c(=O)c2nc[nH]c2n(CCC)c1=O |  | 700 |  | 
CC(C)CCn1c(=O)c2nc(-c3ccccc3)[nH]c2n(CC(C)C)c1=O | > 10000 | 1800 | 10 (≈ 3.54 µg/mL) | 
CC(C)CCn1c(=O)c2[nH]cnc2n(CC(C)C)c1=O | > 150000 | 13000 |  | 
Cn1c(=O)c2c(nc(-c3ccccc3)n2C)n(C)c1=O | 27000 | 17000 |  | 
Cn1c(=O)c2nc(-c3ccc(O)cc3)[nH]c2n(C)c1=O | 130 | 50 | 5 (≈ 1.36 µg/mL) | 
CCCn1c(=O)c2nc(-c3ccc(O)cc3)[nH]c2n(CCC)c1=O | 50 | 2.9 |  | 
CCCn1c(=O)c2[nH]c(-c3ccc(Cl)cc3N)nc2n(CCC)c1=O | 1000 | 2.5 |  | 
Cn1c(=O)c2[nH]c(-c3cccc(C(=O)O)c3)nc2n(C)c1=O | 15000 | 32000 |  | 
Cn1c(=O)c2[nH]c(-c3ccc(N)cc3)nc2n(C)c1=O | 130 | 230 |  | 
CC(C)CCn1c(=O)c2[nH]c(-c3ccc(S(=O)(=O)O)cc3)nc2n(CC(C)C)c1=O | 7000 | 3500 |  | 
Nc1nc(Cl)nc2c1ncn2[C@@H]1O[C@H](CO)[C@@H](O)[C@H]1O |  |  |  | 8000
Cn1c(=O)c2[nH]c(-c3ccccc3O)nc2n(C)c1=O | 1700 | 750 |  | 
CCCn1c(=O)c2[nH]c(-c3ccc(S(=O)(=O)O)cc3)nc2n(CCC)c1=O | 710 | 210 |  | 
CCCn1c(=O)c2nc(-c3ccc(C(=O)O)cc3)[nH]c2n(CCC)c1=O |  | 170 |  | 
Cn1c(=O)c2[nH]c(-c3ccc(S(=O)(=O)O)cc3)nc2n(C)c1=O | 6300 |  | > 20000 | 
Cc1nc2c(=O)n(C)c(=O)n(C)c2[nH]1 | 14000 | 6500 |  | 
Cn1c(=O)c2[nH]c(-c3ccccc3)nc2n(C)c1=O [8-PHENYL THEOPHYLLINE] | 550 |  |  | 
